Source: US9845292B2 (Max-Planck-Gesellschaft zur Förderung der Wissenschaften …, priority 2013, dated 2017)
pKi: −log10 of the molar value. Where two headings read alike, the source gives them in different places.

What was measured:
[1] = target: T1, FKBP52 (Homo sapiens, UniProt Q02790); assay: Fluorescence polarization binding assay, FK1-domain of FKBP52WT with tracer F2 (selectivity FKBP51 vs. FKBP52); conditions: selectivity factor over FKBP52
T1 construct: Purified FK1-domains of FKBP51WT (4.5 nM) with F4 (3 nM), FKBP52WT (400 nM) with F2 (20 nM); implied by Ni-NTA purification) (N); made in house; host or cells: E. coli BL21(DE3)pLysS
T1 sequence (Q02790 50-138 limits assumed): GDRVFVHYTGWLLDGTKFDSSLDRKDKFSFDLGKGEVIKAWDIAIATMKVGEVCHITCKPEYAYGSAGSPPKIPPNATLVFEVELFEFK
Procedure: (§1) The target protein was also diluted in this assay buffer at double the highest concentration required for the final sample. This protein stock was used for a 1:1 serial dilution.
(§2) The inventive compound was dissolved in DMSO to reach a 100-times concentrated stock solution. This was used for a 1:1 serial dilution in DMSO.
(§3) For FKBP12, −51, and −52 the binding assays were performed in duplicates in the plate format.
(§4) The competition curves were analyzed by using SigmaPlot9. Data were fitted to a four parameter logistic curve to deduce the IC50 values. […] A=(Amax−Amin)/[L]t×(([L]t×((2×((Klig+Kcomp+[L]t+[I]t−[R]t)^2−3×(Kcomp×([L]t−[R]t)+Klig×([I]t−[R]t)+Klig×Kcomp))^0.5×COS(ARCCOS((−2×(Klig+Kcomp+[L]t+[I]t−[R]t)^3+9×(Klig+Kcomp+[L]t+[I]t−[R]t)×(Kcomp×([L]t−[R]t)+Klig×([I]t−[R]t)+Klig×Kcomp)−27×(−1×Klig×Kcomp×[R]t))/(2×((((Klig+Kcomp+[L]t+[I]t−[R]t)^2−3×(Kcomp×([L]t−[R]t)+Klig×([I]t−[R]t)+Klig×Kcomp))^3)^0.5)))/3))−(Klig+Kcomp+[L]t+[I]t−[R]t)))/((3×Klig)+((2×((Klig+Kcomp+[L]t+[I]t−[R]t)^2−3×(Kcomp×([L]t−[R]t)+Klig×([I]t−[R]t)+Klig×Kcomp))^0.5×COS(ARCCOS((−2×(Klig+Kcomp+[L]t+[I]t−[R]t)^3+9×(Klig+Kcomp+[L]t+[I]t−[R]t)×(Kcomp×([L]t−[R]t)+Klig×([I]t−[R]t)+Klig×Kcomp)−27×(−1×Klig×Kcomp×[R]t))/(2×((((Klig+Kcomp+[L]t+[I]t−[R]t)^2−3×(Kcomp×([L]t−[R]t)+Klig×([I]t−[R]t)+Klig×Kcomp))^3)^0.5)))/3))−(Klig+Kcomp+[L]t+[I]t−[R]t))))+Amin
(§5) In this equation Klig and Kcomp stand for the Kd values of the used tracer or competing inhibitor, [I]t is referring to the total concentration of the titrated inhibitor.
The Selectivity of the Compounds was Classified by Ki(FKBP51)/Ki(FKBP52)
(§6) Inhibition constants were measured in a fluorescence polarization binding assay by titrating the compounds.

[2] = target: T2, FKBP51 (Homo sapiens, UniProt Q13451); assay: Fluorescence polarization binding assay, FK1-domain of FKBP51WT with tracer F4; set-up: Purified FK1-domains of FKBP51WT (4.5 nM) with F4 (3 nM), FKBP52WT (400 nM) with F2 (20 nM); made in house; host or cells: E. coli BL21(DE3)pLysS; conditions: read-out: Affinity(Ki) for FKBP51
T2 sequence (Q13451 42-130 limits assumed): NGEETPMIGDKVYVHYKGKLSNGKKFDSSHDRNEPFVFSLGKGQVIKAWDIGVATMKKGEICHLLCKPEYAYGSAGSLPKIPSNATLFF
Procedure: as §1, §2, §3, §4, §5, §6

[3] = FKBP52WT (400 nM) with F2 (20 nM), A series
[4] = FK1-domain of FKBP51WT (4.5 nM) with F4 (3 nM), A series

| Ki(FKBP51)/Ki(FKBP52) [1, 3] | pKi [2, 4] | Ki(FKBP51)/Ki(FKBP52) ([1]; compounds B01-C25) | pKi ([2]; compounds B01-C25) | SMILES |
| --- | --- | --- | --- | --- |
| – | – | +++ (>500 +++) | 5.00 to 6.00 | COCCCCOC(=O)[C@@H]1CCCCN1C(=O)[C@H](c1cc(OC)c(OC)c(OC)c1)C1CCCCC1 [Compound C23, (S)-4-methoxybutyl-1-((S)-2-cyclohexyl-2-(3,4,5-trimethoxyphenyl)acetyl) piperidine-2-carboxylate] |
| – | – | +++ (>500 +++) | 5.00 to 6.00 | COc1cc([C@@H](C(=O)N2CCCC[C@H]2C(=O)OC2CCOCC2)C2CCCCC2)cc(OC)c1OC [Compound C12, (S)-tetrahydro-2H-pyran-4-yl-1-((S)-2-cyclohexyl-2-(3,4,5-trimethoxyphenyl)acetyl)piperidine-2-carboxylate] |
| – | – | +++ (>500 +++) | 5.00 to 6.00 | COc1cc([C@@H](C(=O)N2CCCC[C@H]2C(=O)OC2(C)CCCC2)C2CCCCC2)cc(OC)c1OC [Compound C11, (S)-1-methylcyclopentyl-1-((S)-2-cyclohexyl-2-(3,4,5-trimethoxyphenyl)acetyl) piperidine-2-carboxylate] |
| – | – | ++ (>50 ++) | 4.30 to 5.00 | CCC(CC)OC(=O)[C@@H]1CCCCN1C(=O)[C@H](c1cc(OC)c(OC)c(OC)c1)C1CCCCC1 [Compound C09, (S)-pentan-3-yl-1-((S)-2-cyclohexyl-2-(3,4,5-trimethoxyphenyl)acetyl)piperidine-2-carboxylate] |
| – | – | +++ (>500 +++) | 5.00 to 6.00 | COc1cc([C@@H](C(=O)N2CCCC[C@H]2C(=O)O[C@H](C)COCc2ccccc2)C2CCCCC2)cc(OC)c1OC [Compound C24] |
| – | – | ++ (>50 ++) | 5.00 to 6.00 | CCOC(=O)[C@@H]1CCCCN1C(=O)[C@H](c1cc(OC)c(OC)c(OC)c1)C1CCCCC1 [Compound C02, (S)-ethyl 1-((S)-2-cyclohexyl-2-(3,4,5-trimethoxyphenyl)acetyl)piperidine-2-carboxylate] |
| – | – | +++ (>500 +++) | 5.00 to 6.00 | COc1cc([C@@H](C(=O)N2CCCC[C@H]2C(=O)OCCO)C2CCCCC2)cc(OC)c1OC [Compound C20, (S)-2-hydroxyethyl-1-((S)-2-cyclohexyl-2-(3,4,5-trimethoxyphenyl)acetyl)piperidine-2-carboxylate] |
| – | – | + (>5 +) | 4.30 to 5.00 | COc1cc([C@@H](C(=O)N2CCCC[C@H]2C(=O)O)C2CCCCC2)cc(OC)c1OC [Compound C06, (S)-1-((S)-2-cyclohexyl-2-(3,4,5-trimethoxyphenyl)acetyl)piperidine-2-carboxylic acid] |

Continued, compound first:

| SMILES | Ki(FKBP51)/Ki(FKBP52) [1, 3] | pKi [2, 4] | Ki(FKBP51)/Ki(FKBP52) ([1]; compounds B01-C25) | pKi ([2]; compounds B01-C25) |
| --- | --- | --- | --- | --- |
| C=CC[C@H](C(=O)N1CCCC[C@H]1C(=O)O[C@H](CCc1ccc(OC)c(OC)c1)c1cccc(OCC(=O)O)c1)c1cc(OC)c(OC)c(OC)c1 [Reference A01, 2-(3-((R)-3-(3,4-Dimethoxyphenyl)-1-(((S)-1-((S)-2-(3,4,5-trimethoxyphenyl)pent-4-enoyl)piperidine-2-carbonyl)oxy)propyl)phenoxy)acetic acid] | not selective (<5 not selective) | 4.30 to 5.00 | – | – |
| COc1cc([C@@H](C(=O)N2CCCC[C@H]2C(=O)N[C@@H](C(N)=O)C(C)C)C2CCCCC2)cc(OC)c1OC [Compound B04, (S)-N-((R)-1-amino-3-methyl-1-oxobutan-2-yl)-1-((S)-2-cyclohexyl-2-(3,4,5-trimethoxyphenyl)acetyl)piperidine-2-carboxamide] | – | – | + (>5 +) | 5.00 to 6.00 |
| COc1cc([C@@H](C(=O)N2CCCC[C@H]2C(=O)NC2(C(N)=O)CC2)C2CCCCC2)cc(OC)c1OC [Compound B26, (S)-N-(1-carbamoylcyclopropyl)-1-((S)-2-cyclohexyl-2-(3,4,5-trimethoxyphenyl)acetyl)piperidine-2-carboxamide] | – | – | ++ (>50 ++) | 4.30 to 5.00 |
| COc1cc([C@@H](C(=O)N2CCCC[C@H]2C(=O)NC2(C(N)=O)CCOCC2)C2CCCCC2)cc(OC)c1OC [Compound B32] | – | – | ++ (>50 ++) | 4.30 to 5.00 |
| COc1cc([C@@H](C(=O)N2CCCC[C@H]2C(=O)N[C@H](C(N)=O)C(C)C)C2CCCCC2)cc(OC)c1OC [Compound B03, (S)-N-((S)-1-amino-3-methyl-1-oxobutan-2-yl)-1-((S)-2-cyclohexyl-2-(3,4,5-trimethoxyphenyl)acetyl)piperidine-2-carboxamide] | – | – | + (>5 +) | 4.30 to 5.00 |
| COc1ccc(CCC(OC(=O)[C@@H]2CCCCN2C(=O)C(NC(=O)c2ccccc2O)C2CCCCC2)c2cccc(OCC(=O)O)c2)cc1OC (stereo partly drawn) [Compound A24, 2-(3-(1-(((2S)-1-(2-cyclohexyl-2-(2-hydroxybenzamido)acetyl)piperidine-2-carbonyl)oxy)-3-(3,4-dimethoxyphenyl)propyl)phenoxy)acetic acid] | + (>5 +) | 4.30 to 5.00 | – | – |
| COc1cc([C@@H](C(=O)N2CCCC[C@H]2C(=O)N[C@@H](Cc2ccccc2)C(N)=O)C2CCCCC2)cc(OC)c1OC [Compound B05, (S)-N-((S)-1-amino-1-oxo-3-phenylpropan-2-yl)-1-((S)-2-cyclohexyl-2-(3,4,5-trimethoxyphenyl)acetyl)piperidine-2-carboxamide] | – | – | ++ (>50 ++) | 5.00 to 6.00 |
| COc1cc([C@@H](C(=O)N2CCCC[C@H]2C(=O)OC(CCCc2cccnc2)CCCc2cccnc2)[C@@H]2C=CCCC2)cc(OC)c1OC [Compound A13, (S)-1,7-Di(pyridin-3-yl)heptan-4-yl-1-((S)-2-((S)-cyclohex-2-en-1-yl)-2-(3,4,5-trimethoxyphenyl)acetyl)piperidine-2-carboxylate] | +++ (>500 +++) | > 7.00 | – | – |
| COc1ccc(CCC(OC(=O)[C@@H]2CCCCN2C(=O)[C@H](NC(=O)c2ccccc2)C2CCCCC2)c2cccc(OCC(=O)O)c2)cc1OC (stereo partly drawn) [Compound A23, 2-(3-(1-(((2S)-1-(2-benzamido-2-cyclohexylacetyl)piperidine-2-carbonyl)oxy)-3-(3,4-dimethoxyphenyl)propyl)phenoxy)acetic acid] | + (>5 +) | 4.30 to 5.00 | – | – |
| COc1ccc(CC[C@@H](OC(=O)[C@@H]2CCCCN2C(=O)[C@@H](CC2CC2)c2cc(OC)c(OC)c(OC)c2)c2cccc(OCC(=O)O)c2)cc1OC [Reference A07, 2-(3-((R)-1-(((S)-1-((S)-3-cyclopropyl-2-(3,4,5-trimethoxyphenyl)propanoyl)piperidine-2-carbonyl)oxy)-3-(3,4-dimethoxyphenyl)propyl)phenoxy)acetic acid] | not selective (<5 not selective) | 4.30 to 5.00 | – | – |
| COc1ccc(CCC(OC(=O)[C@@H]2CCCCN2C(=O)C(NC(=O)C2N=CN=N2)C2CCCCC2)c2cccc(OCC(=O)O)c2)cc1OC (stereo partly drawn) [Compound A27, 2-(3-(1-(((2S)-1-(2-cyclohexyl-2-(3H-1,2,4-triazole-3-carboxamido)acetyl)piperidine-2-carbonyl)oxy)-3-(3,4-dimethoxyphenyl)propyl)phenoxy)acetic acid] | + (>5 +) | 4.30 to 5.00 | – | – |
| COc1ccc(CC[C@@H](OC(=O)[C@@H]2CCCCN2C(=O)[C@H](c2cccc(F)c2)C2CCCCC2)c2cccc(OCC(=O)O)c2)cc1OC [Compound A36, 2-(3-((R)-1-(((S)-1-((S)-2-cyclohexyl-2-(3-fluorophenyl)acetyl)piperidine-2-carbonyl)oxy)-3-(3,4-dimethoxyphenyl)propyl)phenoxy)acetic acid] | +++ (>500 +++) | 5.00 to 6.00 | – | – |
| COc1cc([C@@H](C(=O)N2CCCC[C@H]2C(=O)N[C@@H](C)C(N)=O)C2CCCCC2)cc(OC)c1OC [Compound B01, (S)-N-((S)-1-amino-1-oxopropan-2-yl)-1-((S)-2-cyclohexyl-2-(3,4,5-trimethoxyphenyl)acetyl)piperidine-2-carboxamide] | – | – | ++ (>50 ++) | 5.00 to 6.00 |
